Source: publication PMC7247319, “The mitochondria-targeted peptide SS-31 binds lipid bilayers and modulates surface electrostatics as a key component of its mechanism of action” (The Journal of Biological Chemistry, 2020)
Where a SMILES comes first, the peptide text is derived from it. [ ]: non-standard residue; d: D form. Dmt = Cc1cc(O)cc(C)c1C[C@H](N)C(=O)O

Tested on: LUVs containing 20% TOCL or 20% POPG
Assay: ANS fluorescence reporter of surface potential of model membranes
Details: increasing [peptide]/[lipid]eff, 20% TOCL or 20% POPG LUVs
Method: Figure 3. SS-31 binding and surface electrostatics. A, binding isotherms. Peptide was titrated with LUVs of the indicated composition (20% TOCL, [SS-31] = 7.5 μM and 20% POPG, [SS-31] = 3.8 μM) at 30-nmol total lipid increments in the presence of different concentrations of added KCl. Values shown are means ± S.D. (error bars) (n = 3), and lines show data fits based on Equation S3. […] B and C, effect of SS-31 binding on surface charge. Measurements of ζ (B) and ANS fluorescence (C) are shown as a function of [SS-31]/[lipid]^eff for membranes containing 20% TOCL and 20% POPG as indicated. Values shown are means ± S.D. (error bars) (n = 3).
To continue this analysis, we determined the relationship between SS-31 binding and surface electrostatics by two complementary approaches. […] As an independent technique, we measured the effect of SS-31 on surface electrostatics using 1-anilinonaphthalene-8-sulfonic acid (ANS), a fluorescent reporter whose binding to anionic bilayers increases as the magnitude of the ψs is reduced, measured as an increase in probe emission intensity ([42]) (Fig. 3C and Fig. S9D). […]
Steady-state fluorescence measurements were performed with a Fluorolog 3-22 spectrofluorometer (HORIBA Jobin-Yvon) equipped with photon-counting electronics, double-grating excitation and emission monochromators, automated Glan–Thompson polarizers, and a 450-watt xenon lamp. […]

Cc1cc(O)cc(C)c1C[C@H](NC(=O)[C@H](N)CCCNC(=N)N)C(=O)N[C@@H](CCCCN)C(=O)N[C@@H](Cc1ccccc1)C(N)=O [SS-31, D-Arg-2′6′-dimethyl-Tyr-Lys-Phe-NH2] (H-[dR][Dmt]KF-NH2)
effect on ANS-detected surface potential (ψs) of anionic model membranes: saturable ANS-detected reduction in the ψs
